Drawing on ChEMBL document CHEMBL3763080, “Design and synthesis of a C7-aryl piperlongumine derivative with potent antimicrotubule and mutant p53-reactivating properties” (Eur J Med Chem, 2016), this text covers Activity, inhibition and IC50 for 4 compounds.

As a reminder, the IC50 is the concentration needed to halve the response being measured.

Experiment [1] concerns Cellular tumor antigen p53 (Homo sapiens), P04637 [R175H]. Put plainly: Reactivation of human p53 R175H mutant in SKBR3 cells assessed as increase in p53 DNA binding at 5 uM by non biotinylated double stranded DNA probe-based electrophoretic-mobility shift assay. In kind it is cell-based. As to conditions: SK-BR-3.
For experiment [2] the test system is unchanged. Put plainly: Reactivation of human p53 R175H mutant in SKBR3 cells assessed as increase in p53 DNA binding at 5 uM by biotinylated double stranded DNA probe-based electrophoretic-mobility shift assay. In kind it is cell-based. The following applies: SK-BR-3.
The test system is the same in experiment [3]. Briefly: Reactivation of human p53 R175H mutant in human SKBR3 cells assessed as downregulation of CDC25C expression at 2.5 uM after 24 hrs by Western blot analysis. In kind it is cell-based. The following applies: SK-BR-3. For orientation: In western blotting, separated proteins are transferred to a membrane and probed.
The test system is the same in experiment [4]. Briefly: Reactivation of human p53 R175H mutant in human SKBR3 cells assessed as upregulation of cyclin B1 expression at 2.5 uM after 24 hrs by Western blot analysis. In kind it is cell-based. The following applies: SK-BR-3.
Experiment [5] shares this test system. Put plainly: Reactivation of human p53 R175H mutant in human SKBR3 cells assessed as upregulation of MDM2 expression after 24 hrs by Western blot analysis. Format: cell-based. The following applies: SK-BR-3.
The test system is the same in experiment [6]. Put plainly: Reactivation of p53 R175H mutant in human SKBR3 cells assessed as accumulation of wild type p53 at 5 uM after 12 hrs by DAPI staining based confocal/multiphoton microscopic analysis. In kind it is cell-based. As to conditions: SK-BR-3.
The test system is the same in experiment [7]. Put plainly: Reactivation of human p53 R175H mutant in human SKBR3 cells assessed as upregulation of p21cip1 expression after 24 hrs by Western blot analysis. The following applies: SK-BR-3. In kind it is cell-based.
For experiment [8], the target named is Tubulin (Bos taurus) (UniProt Q6B856+Q862L2+Q862F3). Put plainly: Inhibition of bovine brain tubulin polymerization measured every 1 min for 30 mins by fluorescence assay.
Experiment [9] relates to Cellular tumor antigen p53 (Homo sapiens), P04637 [R175H]. Briefly: Reactivation of human p53 R175H mutant in human SKBR3 cells assessed as upregulation of Aurora kinase A expression at 2.5 uM after 24 hrs by Western blot analysis. In kind it is cell-based. The following applies: SK-BR-3.
Experiment [10] shares this test system. Put plainly: Reactivation of p53 R175H mutant in human SKBR3 cells at 5 uM after 12 hrs by flow cytometric analysis. In kind it is cell-based. The following applies: SK-BR-3. A general note: Flow cytometry measures light scatter and fluorescence of single cells or particles in a stream.
Experiment [11] has the same test system. Briefly: Reactivation of human p53 R175H mutant in human SKBR3 cells assessed as increase in wild type p53 expression after 12 hrs by immunoprecipitation/Western blot analysis. In kind it is cell-based. As to conditions: SK-BR-3.
Experiment [12] shares this test system. Briefly: Reactivation of human p53 R175H mutant in human SKBR3 cells assessed as upregulation of PUMA expression after 24 hrs by Western blot analysis. In kind it is cell-based. As to conditions: SK-BR-3.
For experiment [13] the test system is unchanged. Put plainly: Reactivation of human p53 R175H mutant in human SKBR3 cells assessed as decrease in mutant p53 expression after 12 hrs by immunoprecipitation/Western blot analysis. The following applies: SK-BR-3. In kind it is cell-based. Set-up: scale not given: the % may be the effect or the level left.
For experiment [14] the test system is unchanged. Briefly: Reactivation of human p53 R175H mutant in human SKBR3 cells assessed as cell cycle arrest at G2/M phase at 2.5 uM after 24 hrs by propidium iodide staining based flow cytometric analysis. The following applies: SK-BR-3.
The nature of experiment [15]: Cytotoxicity against human SF188 cells assessed as cell viability after 72 hrs by resazurin reduction assay. Format: functional, cell-based. The following applies: SF-188, 72 h.
Experiment [16] has as its system T98G. Put plainly: Cytotoxicity against human T98G cells assessed as cell viability after 72 hrs by resazurin reduction assay. In kind it is functional, cell-based.
The nature of experiment [17]: Cytotoxicity against human GBM10 cells assessed as cell viability after 72 hrs by resazurin reduction assay. The following applies: GBM10, 72 h. In kind it is functional, cell-based. Background: Alamar Blue is a resazurin reagent that responds to reducing activity.
Experiment [18] can be described thus: Cytotoxicity against human HT1080 cells assessed as cell viability after 72 hrs by resazurin reduction assay. In kind it is functional, cell-based. As to conditions: HT-1080, 72 h.
Experiment [19] has as its system HT-29. Briefly: Cytotoxicity against human HT-29 cells assessed as cell viability after 72 hrs by resazurin reduction assay. In kind it is functional, cell-based. The following applies: HT-29, 72 h.
A short description of experiment [20]: Cytotoxicity against human SKBR3 cells assessed as cell viability after 72 hrs by resazurin reduction assay. As to conditions: SK-BR-3, 72 h. In kind it is functional, cell-based.
Experiment [21] deals with MCF7. Briefly: Cytotoxicity against human MCF7 cells assessed as cell viability after 72 hrs by resazurin reduction assay. Format: functional, cell-based. The following applies: MCF7, 72 h.
Experiment [22] has as its system A549. Briefly: Cytotoxicity against human A549 cells assessed as cell viability after 72 hrs by resazurin reduction assay. In kind it is functional, cell-based. The following applies: A549, 72 h.
Experiment [23] relates to SK-BR-3. Briefly: Induction of microtubule destabilization in human SKBR3 cells assessed as soluble fraction of protein at 2.5 uM after 24 hrs by Western blot analysis. In kind it is cell-based.

The source made the active and inactive calls. The rule behind the calls is not given here.

Take `COc1ccc(/C(=C\c2cc(OC)c(OC)c(OC)c2)C(=O)N2CCC=CC2=O)cc1`: in experiment [1], the result was inactive. Besides, the result in experiment [2], in experiment [3], in experiment [4], in experiment [6], in experiment [9] and in experiment [10] was Active. In addition, the Activity entry was “Dose-dependent effect” in experiment [5]; “Dose-dependent effect” in experiment [7]; 80% in experiment [11]; “Dose-dependent effect” in experiment [12]; 90% in [13]; over 60% in [14]. The inhibition result in experiment [8] is “Dose-dependent effect”.

Take `COc1ccc(/C=C\c2cc(OC)c(OC)c(OC)c2)cc1O` [COMBRETASTATIN A4]: the 50% inhibitory concentration (IC50) stood at 21 nM in experiment [15]; 11 nM in experiment [16]; 52 nM in [17]; 70 nM in experiment [18]; 420 nM in experiment [19]; 8 nM in experiment [20]. Also, the concentration for half-maximal inhibition (IC50) in experiment [21] stood at 42 nM; in experiment [22], 3 nM. For the same compound, in experiment [8], the inhibition result was “Dose-dependent effect”.

`COC(=O)Nc1nc2cc(C(=O)c3cccs3)ccc2[nH]1`: the result in experiment [23] was Active.

For the compound `COc1cc(/C=C/C(=O)N2CCC=CC2=O)cc(OC)c1OC` [PIPLARTINE], the IC50 is 3900 nM in experiment [15]; 4920 nM in experiment [16]; 3810 nM in [17]; 3430 nM in experiment [18]; 5490 nM in experiment [19]; 4040 nM in experiment [20]. The values for the 50% inhibitory concentration (IC50) in [21] and in experiment [22] were 6140 nM and 6540 nM, respectively.
